Measured values published in patent US20050065114A1, “Therapeutical treatment with oligo-beta- (1,3) -glucans, drugs used in said treatment” (priority 2003, published 2005).
Several values for one entry are separate records, joined by “and”; a condition that tells them apart may be missing. Identical values can stand only once.

Columns and labels:
Type in all cases: in vivo, Balb/c mice
[1] = test system: cells from peripheral blood (monocytes, granulocytes); assay: Phagocytosis of HEMA particles by cells from peripheral blood after intraperitoneal injection; conditions: for % of phagocytosing granulocytes / % of phagocytosing monocytes: peripheral blood 24 hrs after i.p. injection
Procedure: A group of Balb/c mice (Jackson laboratory, Bar Harbor, ME, USA) has been injected intraperitoneally with either PBS (Control; Sigma, St. Louis, Mo., USA), Laminaritetraose or Laminaripentaose. 24 hrs later, mice were sacrified, peripheral blood from the orbital plexus was collected into heparine (5 IU/ml) (Sigma).
After counting, a test of phagocytosis of HEMA particles (synthetic microspheres prepared from 2-hydroxyethylmethacrylate copolymer) was performed as described in: Rembaum et al., 1976, Vetvicka et al. 1982, Bilej et al., 1989.
0.1 ml of heparinized fresh blood was added to 0.05 ml of diluted HEMA particles (5×10^8/ml) and incubated for 60 minutes at 37° C. with occasional gentle agitation.
After the end of incubation, the cell suspension was smeared over microscope slides. Smears were evaluated under the optical microscope after Accustain (modified Wright stain, Sigma) staining.
Cells with at least three engulfed particles were considered to be positive.

[2] = test system: peritoneal macrophages; assay: Phagocytosis of HEMA particles by cells from peritoneal cavity after intraperitoneal injection; conditions: for % of phagocytosing macrophages: peritoneal cells 24 hrs after i.p. injection
Procedure: A group of Balb/c mice (Jackson laboratory, Bar Harbor, Me., USA) has been injected intraperitoneally with either PBS (control), Laminaritetraose or Laminaripentaose. 24 hrs later, mice were sacrificed, peritoneal cells were collected into Hanks medium (Sigma).
After counting the cells in hemocytometer, the peritoneal cells were diluted to lxlO7 cells in RPMI 1640 medium (Sigma) with 5% fetal calf serum (Hyclone, Logan, Utah, USA).
2×10^6 cells in 0.2 ml of RPMI 1640 medium supplemented with 5% fetal calf serum were mixed with the same volume of HEMA particles (5×10^8/ml).
The suspension was incubated for 60 minutes at 37° C. with occasional agitation. Incubation was terminated by centrifugation (150 g for 5 minutes) and the pellet was resuspended.
Macrophages with ingested particles were scored under the optical microscope in smears after Accustain (modified Wright stain, Sigma) staining.
Cells with six or more engulfed particles were considered to be positive.

[3] = test system: peripheral blood cells (monocytes, lymphocytes, granulocytes); assay: Differential count in blood; conditions: for % of granulocytes / % of lymphocytes / % of monocytes: peripheral blood 24 hrs after i.p. injection
Procedure: (§1) Using the same experimental groups as described above in Example 3, two extra microscopic slides from each experimental sample were prepared. After Accustain (modified Wright stain, Sigma) staining, the slides were evaluated using the optical microscope for presence of individual types of cells, i.e. monocytes, lymphocytes and granulocytes.

[4] = test system: peritoneal cells (macrophages, lymphocytes, mast cells); assay: Differential count in peritoneal cells; conditions: for % of lymphocytes / % of macrophages / % of mast cells: peritoneal cells 24 hrs after i.p. injection
Procedure: as §1, with “4,” for “3,”, “macrophages,” for “monocytes,”, “mast cells.” for “granulocytes.”

[5] = test system: TNF-alpha; assay: Cytokine level in peripheral blood: TNF-alpha in serum by OptEIA Mouse TNF-alpha ELISA; conditions: for TNF-alpha level (Table 6, same experiments as Table 5): 250 μg/mouse, unit not given in Table 6 (Table 5: pg/ml)
Procedure: Balb/c mice were intraperitoneally injected with 50 μg of Laminaritetraose, Laminaripentaose, Laminarin or Lentinan (purchased from NIH, Bethesda, Md., USA) in PBS.
After various time intervals (30, 60 and 90 minutes, respectively), after the injection of Laminaritetraose, Laminaripentaose, Laminarin, Lentinan only, the mice were killed and blood was collected in Eppendorf tubes.
Subsequently, the serum of the collected blood was separated, collected and stored at −80° C. for no more than 1 week.
The level of TNF-alpha in the serum samples was evaluated using a commercial kit marketed as OptEIA Mouse TNF-alpha (Mono/Mono) Set by the Company Pharmingen, San Diego, Calif., USA); the manufacturer's instructions were followed.
In connection with the experiments carried out by Applicants, Balb/c mice were intraperitoneally injected with various doses (50, 100, and 250 μg) of Soluble laminarin and Lentinan (from NIH, Bethesda, Md., USA) in PBS.
Control mice were treated with PBS only. […]
Subsequently, the serum was prepared, collected and stored at −80° C. for no more than 1 week.
The level of TNF-alpha in serum samples was evaluated using a commercial kit marketed as OptEIA Mouse TNF-alpha (Mono/Mono) Set by the Company Pharmingen, San Diego, Calif., USA); the manufacturer's instructions were followed.
In that respect, The wells of 96-well plates were coated with 0.1 ml/well of capture antibody (provided in the above kit) diluted in coating buffer (also provided in the above kit); the expression “capture antibody” designates first antibody used for coating of wells; this antibody captures the tested cytokines from the solution; in this assay it was anti-mouse-TNF-alpha monoclonal antibody.
The plates were sealed and incubated overnight at 4° C.
Individual wells were emptied by aspiration and washed 3 times with over 300 el/well of wash buffer (also provided in the kit).
Reaction was blocked with 200 el/well of assay dilutant diluent (also provided in the kit) and by incubation for 60 minutes at room temperature.
Again, individual wells were emptied by aspiration and washed 3 times with over 300 el/well of the same wash buffer.
Standards (also provided in the kit) and samples of serum were diluted in assay diluent (also provided in the kit) and pipetted (100 μl/well) in appropriate wells; as far as the dissolution rate is concerned standards (part of the kit) were diluted according to the instructions into following concentrations: 1000 pg/ml, 500 pg/ml, 250, 125, 62.5, 31.3, and 15.6 pg/ml.
The plates were sealed and incubated for 60 minutes at room temperature. Individual wells were aspirated and washed 3 times with over 300 μl/well of the same wash buffer. A quantity of 100 μl/well of a working detector (antibody-avidin-HRP conjugate also provided in the kit) was added into each well.
The plates were sealed with plastic foils and incubated for 60 minutes at room temperature. Individual wells were emptied by aspiration and washed 3 times with over 300 μl/well of same wash buffer.
A quantity of 100 μl/well of substrate solution (also provided in the kit) was added to each well and the plates were incubated for 30 minutes in the dark at room temperature; “substrate solution” is formed by mixing a substrate reagent A containing hydrogen peroxide and Substrate reagent B containing 3,3′,5,5′-tetramethylbenzidine in organic solvent; when mixed together, the reagent reacts with peroxidase-labeled conjugates to develop a blue color.
A quantity of 50 μl/well of stop solution provided in the kit and adapted to stop the reaction was added to each well and the optical density was determined using a STL ELISA reader (marketed by Tecan U.S., Research Triangle Park, N.C.) at 450 nm with a correction at 570 nm.
The concentration of TNF-alpha, in pg/ml, in the blood of the mice treated as hereabove disclosed has been determined at the following moments: 30, 60 and 90 minutes after the injection of Laminaritetraose, Laminaripentaose, Lentinan and control. […]

[6] = individual values, cells with at least three engulfed HEMA particles positive
[7] = mean, at least three engulfed HEMA particles

## OC[C@H]1O[C@@H](O[C@@H]2[C@@H](O)[C@H](O[C@@H]3[C@@H](O)[C@H](O[C@@H]4[C@@H](O)[C@H](O)O[C@H](CO)[C@H]4O)O[C@H](CO)[C@H]3O)O[C@H](CO)[C@H]2O)[C@H](O)[C@@H](O)[C@@H]1O [Laminaritetraose, β-D-glucopyranosyl-(1→3)-β-D-glucopyranosyl-(1→3)-β-D-glucopyranosyl-(1→3)-β-D-glucopyranose]
[1]; [6]
  % of phagocytosing granulocytes: 28.6% and 32.3% and 32.6%
  % of phagocytosing monocytes: 36.8% and 30.9% and 39.8%
[1]; [7]
  % of phagocytosing granulocytes: 31.2%
  % of phagocytosing monocytes: 35.8%
[1]; peripheral blood, versus PBS control
  Effect on phagocytosis in monocytes and granulocytes (in words): strongly stimulate phagocytosis
[2]; individual values, cells with six or more engulfed HEMA particles positive
  % of phagocytosing macrophages: 46.2% and 51.5% and 44.5%
[2]; mean, six or more engulfed HEMA particles
  % of phagocytosing macrophages: 47.4%
[2]; peritoneal cells, versus PBS control
  Effect on phagocytosis of peritoneal macrophages (in words): strongly stimulate phagocytosis
[3]; individual values
  % of granulocytes: 33.2% and 34.4% and 30.1%
  % of lymphocytes: 57.7% and 55.6% and 61.4%
  % of monocytes: 9.1% and 10.0% and 8.5%
[3]; mean
  % of granulocytes: 32.6%
  % of lymphocytes: 58.2%
  % of monocytes: 9.2%
[3]; versus PBS control
  Effect on number of granulocytes in the peripheral blood (in words): increase the number of granulocytes
[4]; individual values
  % of lymphocytes: 45.9% and 50.4% and 44.1%
  % of macrophages: 41.2% and 43.6% and 46.8%
  % of mast cells: 12.9% and 6.0% and 9.1%
[4]; mean
  % of lymphocytes: 46.8%
  % of macrophages: 43.9%
  % of mast cells: 9.3%
[4]; versus PBS control
  Effect on migration of macrophage into the peritoneal cavity (in words): stimulate the migration of macrophage
[5]; 50 μg/mouse i.p., 30 min
  Concentration of TNF alpha in blood of treated mice: 55.7 pg/mL
[5]; 50 μg/mouse i.p., 60 min
  Concentration of TNF alpha in blood of treated mice: 103.0 pg/mL
[5]; 50 μg/mouse i.p., 90 min
  Concentration of TNF alpha in blood of treated mice: 35.3 pg/mL
[5]; 100 μg/mouse i.p., 30 min
  Concentration of TNF alpha in blood of treated mice: 39.0 pg/mL
[5]; 100 μg/mouse i.p., 60 min
  Concentration of TNF alpha in blood of treated mice: 18.4 pg/mL
[5]; 100 μg/mouse i.p., 90 min
  Concentration of TNF alpha in blood of treated mice: 13.6 pg/mL
[5]; 250 μg/mouse i.p., 30 min
  Concentration of TNF alpha in blood of treated mice: 27.3 pg/mL
[5]; 250 μg/mouse i.p., 60 min
  Concentration of TNF alpha in blood of treated mice: 152.3 pg/mL
[5]; 250 μg/mouse i.p., 90 min
  Concentration of TNF alpha in blood of treated mice: 11.1 pg/mL
[5]; 24 hours
  TNF-alpha level (Table 6, same experiments as Table 5): 28.1 pg/mL
[5]; 48 hours
  TNF-alpha level (Table 6, same experiments as Table 5): 35.9 pg/mL
[5]; comparison between substances, Table 6, 24 and 48 h
  Relative activity on TNF-alpha level (in words): more active than yest derived glucan (Lentinan)
[5]; low doses, indirect activation of macrophages and cytotoxic T lymphocytes
  Increase of TNF-alpha secretion compared with Lentinan (in words): significantly higher
